{"source": "patent US20010049389A1", "about": "“Arthropod-controlling composition” (priority 2000, published 2001)", "format_in_all_cases": "in vivo", "key": {"[1]": {"test_system": "adult copra mites (Tyrophagus putrescentiae)", "assay": "Test Example 11: treated drawing paper, copra mites", "details": "drawing paper 800 mg/m^2, 25° C., 75% humidity, 24 hours", "procedure": "On a black drawing paper having 38 mm in diameter, 0.2 ml of an acetone solution of the Pyrone Compound was added dropwise and air-dried. The treated dosage was 800 mg/m^2. The drawing paper was set on an aluminum plate having 38 mm in diameter and adhesives were put on the edge to prevent for tested mites to escape. About 30 adult copra mites (Tyrophagus putrescentiae) were released on the drawing paper and kept at 25° C. and 75% of humidity for 24 hours. After that, the mortality was observed. The result was 93%."}, "[2]": {"test_system": "adult cat fleas (Ctenocephalides felis)", "assay": "Test Example 7: treated filter paper contact, adult cat fleas", "details": "three repetitions", "procedure": "A designated amount of the Pyrone Compound was dissolved in acetone to give a 0.2 ml solution, which was uniformly treated on a filter paper having 3.8 cm in diameter, and air-dried for one hour. The filter paper was filled in a lid of a 200 ml glass bottle. Twenty adult cat fleas (Ctenocephalides felis) were released in the glass bottle, which was followed by covering with the lid. The glass bottle was upset for making the fleas contact with the filter paper, and kept at room temperature (25±3° C.) for one day. After that, the mortality was observed."}, "[3]": {"test_system": "centipede (Scolopendra subspinipes mutilans)", "assay": "Test Example 22: oil-based aerosol spray, centipede", "details": "about 1000 mg of 1.0% oil-based aerosol sprayed, after 3 days", "procedure": "According to Preparation examples 10-14, 1.0% oil-based aerosol of the Pyrone Compound was obtained. A container (12.5 cm in diameter, 17.5 cm in height, bottom covered 16-mesh iron net and inside wall painted butter for preventing tested pill bugs to escape) having a centipede (Scolopendra subspinipes mutilans) therein was set on the bottom center of a glass cylinder having 20 cm in diameter and 60 cm in height. About 1000 mg of the above oil-based aerosol were sprayed to the centipede from the upper part of the cylinder. After 30 seconds, the centipede was taken out and put into a clean plastic cup and given food and water. It was observed that the centipede was dead after 3 days."}, "[4]": {"test_system": "adult American cockroaches (Periplaneta americana)", "assay": "Test Example 5: heating fumigant (ceramic plate) in 5.8 m^3 chamber, American cockroaches", "details": "heating fumigant (Preparation example 24, 500 mg) at about 200° C. in 5.8 m^3 chamber", "procedure": "On the bottom of a cubic chamber having 1.8 m of side (5.8 m^3), the heating fumigant (ceramic plate) obtained in Preparation example 24 with an electric heater was set in the center. Two plastic cups were put at two corners in the chamber, wherein each cup has ten (5 males and 5 females) adult German cockroaches (Blattella germanica) therein. Two hours after turning on an electric current, the ceramic plate was heated to about 200° C. (200±5° C.) and the active ingredient was vaporized. The heating temperature was estimated by measuring a surface temperature of the ceramic plate with radiation pyrometer (TR-0506C produced by Minolta Company) in advance. Then, the knocked-down cockroaches were counted and the knock-down percentage was calculated. Further, the cockroaches were transferred to a clean plastic cup and given foods and water. The mortality was observed after 7 days.\nFurthermore, the same tests were performed except that six (3 males and 3 females) adult smokybrown cockroaches (Periplaneta fuliginosa) and six (3 males and 3 females) adult American cockroaches (Periplaneta americana) were used in place of ten German cockroaches."}, "adult Porcellio scaber": {"test_system": "adult Porcellio scaber", "assay": "Test Example 13: oil-based aerosol spray, Porcellio scaber", "details": "about 450 mg of 1.0% oil-based aerosol sprayed, after 3 days", "procedure": "According to Preparation examples 10-14, 1.0% oil-based aerosol of the Pyrone Compound was obtained. A container (8.75 cm in diameter, 7.5 cm in height, bottom covered 16-mesh iron net and inside wall painted butter for preventing tested pill bugs to escape) having 5 adult pill bugs (Armadillidium vulgare) therein was set on the bottom center of a glass cylinder having 20 cm in diameter and 60 cm in height. About 450 mg of the above oil-based aerosol were sprayed to the pill bugs from the upper part of the cylinder. After 30 seconds, the pill bugs were taken out and put into a clean plastic cup having soil and dead leaves therein. The pill bugs were given food and water and observed after 3 days. The tests were repeated twice. The mortality was 100%. Reference compound was also tested and the mortality was 40%.\nThe same procedure was performed as in Test example 12 except that 5 adult Porcellio scaber were used in place of Armadillidium vulgare. As a result, the mortality of the Pyrone Compound was 100%."}, "[5]": {"test_system": "termites (Coptotermes formosanus)", "assay": "Test Example 9: treated soil after 3 months storage, termites", "details": "10 ml of 0.5% (w/w) solution in 200 g soil, kept 3 months at 40° C. in the dark, after 10 days", "procedure": "The Pyrone Compound was dissolved in water to give a 10 ml solution having 0.5% (w/w) of a concentration. The solution was mixed with 200 g of soil and air-dried. After keeping for 3 months at 40° C. and in the dark, about 10 g of the soil were put on a plastic Petri dish having 9 cm in diameter. The soil was wetted with distilled water and 10 termites (Coptotermes formosanus) were released thereon. After 10 days, the termites were observed and the percent moribund was 100%."}, "[6]": {"test_system": "3-instar larvae of diamondback moth (Plutella xylostella)", "assay": "Test Example 18: treated cabbage leaf disc, feeding damage by diamondback moth", "details": "50 μg on cabbage leaf disc of 1 cm diameter, after 24 hours", "procedure": "A methanol solution (50 μg/20 μl) of the Pyrone Compound was prepared. The solution (20 μl) was painted on a cut leaf disc of cabbage (1 cm in diameter). After vaporizing methanol, the leaf disc was put on a filter paper, which was wet with 1 ml of water, in Petri dish making the painted surface upside. Two 4-instar larvae of tobacco cutworm (Spodoptera litura) were put in the Petri dish. After 24 hours, the damage of the leaf disc was observed and compared with the test result of the non-treated disc. The tests were repeated 5 times.\nThe same procedure was performed as in Test example 17 except that five 3-instar larvae of diamondback moth (Plutella xylostella) was used in place of tobacco cutworm (Spodoptera litura)."}, "[7]": {"test_system": "adult German cockroaches (Blattella germanica)", "assay": "Test Example 21: total-release aerosol in 28 m^3 chamber, German cockroaches", "details": "total-release aerosol (Preparation example 16) in 28 m^3 chamber, after 2 hours", "procedure": "In a test chamber of 3 m×4 m and 2.3 m in height (28 m^3), two plastic cups were put at two corners, wherein each cup has ten (5 males and 5 females) adult German cockroaches (Blattella germanica) therein. The formulation obtained in Preparation example 16 was set in the center of the bottom and the contents of the aerosol were totally released. After 2 hours, the knock-down percentage was 100%."}}}
{"smiles": "Cc1cc(O)c(C(=O)CC(C)C)c(=O)o1", "note": "[The Pyrone Compound]", "values": [{"measurement": "mortality", "setting": "[1]", "value": 93, "unit": "%"}, {"measurement": "Mortality (%)", "setting": "[2]; dosage 200 mg/m^2, one day", "value": 98, "unit": "%"}, {"measurement": "Mortality (%)", "setting": "[2]; dosage 800 mg/m^2, one day", "value": 100, "unit": "%"}, {"measurement": "state of the centipede after spraying", "setting": "[3]", "value": "dead"}, {"measurement": "Mortality (%)", "setting": "[4]; after 7 days", "value": 67, "unit": "%"}, {"measurement": "Knock-down percentage (%)", "setting": "[4]; two hours", "value": 100, "unit": "%"}, {"measurement": "mortality", "setting": "adult Porcellio scaber", "value": 100, "unit": "%"}, {"measurement": "percent moribund", "setting": "[5]", "value": 100, "unit": "%"}, {"measurement": "damage of the leaf disc compared with the non-treated disc", "setting": "[6]", "value": "clearly smaller"}, {"measurement": "knock-down percentage", "setting": "[7]", "value": 100, "unit": "%"}]}
